Results taken from the METLIN SMRT retention time set (Domingo-Almenara et al. 2019).

Experiment: gradient 5% acetonitrile 3 min, to 50% in 2 min, to 85% in 15 min, held 3 min, 100 µL/min
Conditions: column: Zorbax Extend-C18 2.1 x 50 mm; eluents: water / acetonitrile, 0.1% formic acid
Summary of the method: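 The mobile phases were water and acetonitrile, each with 0.1% formic acid, pumped at 100 μL/min through a Zorbax Extend-C18 column (2.1 × 50 mm, 1.8 μm). Pure standards were injected as mixtures of ~100 molecules and detected by a quadrupole time-of-flight mass spectrometer in positive and negative ionization mode. Retention time came from computationally picked adduct peaks, each inspected by hand.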

Structure (SMILES)	RP-LC retention time [s]
CCc1cccc(C)c1Nc1c(-c2ccc(C(=O)NC(C)C)cc2)nc2cnccn12	814
O=C(Nc1ccc2c(c1)OCCO2)C1CCCN(S(=O)(=O)Cc2ccccc2Cl)C1 (stereo not given)	968
O=C(Nc1ccc(N2CCN(C3CCCC3)C2=O)nc1)c1ccccc1	817
O=C(Nc1cccs1)N1CC(c2nc(C3CC3)no2)C1	681
CN(C)c1cc(N2CCCC(NC(=O)c3ccnn3C)C2)ncn1 (stereo not given)	578
CCOc1ccccc1NC(=O)N1CCN(Cc2nc3cc(Cl)ccc3o2)CC1	867
O=C(Cc1cn(Cc2ccccc2)c2ccccc12)NCc1cccs1	929
CC(=O)Nc1ccc(CCc2nc3ccc(C(=O)NC(C)CCc4ccccc4)cc3[nH]2)cc1 (stereo not given)	682
O=C(Nc1nccs1)C1CCN(C(=O)c2ccccn2)CC1	555
COc1ccc(-c2cn3c(CC(=O)Nc4ccccc4OC)csc3n2)cc1	748
Cc1cc(=O)n(CC(=O)Nc2ccccc2)c(-c2ccc(Cl)cc2)n1	1100
Cc1ccc(N2CCC(NC(=O)Cc3cccs3)C2=O)cc1 (stereo not given)	827
COc1ccc(C)cc1NC(=O)NCCNC(=O)c1ccc(NC(=O)C2CCCC2)cc1	759
CC1CCN(S(=O)(=O)c2ccc3c(c2)CCCC(=O)N3CC(=O)N2CCc3ccccc3C2)CC1	1010
Cc1ccc(-c2cn3c(CC(=O)NCCCc4ccccc4)csc3n2)cc1C	887
COc1ccc(OCc2noc(CNC(=O)CSc3nc4ccccc4o3)n2)cc1	806
CNC(=O)c1c(NC(=O)c2cccc(Cl)c2)sc2c1CCC2	1160
CCC1CCCCN1CCCNC(=O)C1CCN(c2ccc(N3CCCCC3)nn2)CC1 (stereo not given)	561
COc1ccc(S(=O)(=O)Cc2nc(-c3ccccc3Br)no2)cc1	905
CCc1ccccc1NS(=O)(=O)c1cc(-c2nc(C)cs2)sc1C	1100
Cc1ccc(S(=O)(=O)N2CCC(c3nc(C(=O)N(C)C)c(C)o3)CC2)cc1	818
CCOC(=O)C1CCCN(C(=O)C2CCN(S(=O)(=O)c3ccc4c(c3)sc(=O)n4C)CC2)C1 (stereo not given)	825

Structure (SMILES)	RP-LC retention time [s]
CCCCNC(=O)Cn1c(CC)nc2c(c1=O)CN(Cc1ccccc1)CC2	605
CCOc1ccc(OC(=O)C2CCN(c3nc4ccccc4[nH]3)CC2)cc1	712
COc1ccc(-c2cc3nn(CC(=O)Nc4ccccc4F)c(=O)n3c(C)n2)cc1	901
CC1=C(c2ccccc2)S(=O)(=O)N=C1N1CCCN(C(=O)CC(C)C)CC1	803
CCc1nnc(-c2ccc3ccn(CC(=O)N4CCN(c5ccccn5)CC4)c3c2)o1	614
Cc1ccc(NS(=O)(=O)c2cc(-c3cc(C(F)(F)F)on3)sc2C)c(Cl)c1	1220
CC(=O)N1c2ccc(S(=O)(=O)N3CCCCC3)cc2CC1C(=O)NCCN1CCCC1 (stereo not given)	592
CCc1ccc(OCc2nc(CC(=O)Nc3nc(-c4ccc(C)cc4)cs3)cs2)cc1	1270
Cc1ccc(N2CC(c3noc(-c4cccc(N(C)C)c4)n3)CC2=O)cc1 (stereo not given)	1090
O=C(NCCCN1CCCC1)C1CCN(c2nc3cccnc3s2)CC1	585
O=C(c1cn(-c2cc(N3CCSCC3)ncn2)cn1)N1CCC(Cc2ccccc2)CC1	1090
CCN1CCN(CCNC(=O)c2cc3n(n2)CCCN(Cc2ccc(Cl)cc2)C3=O)CC1	610
Cc1ccc(CN2C(=O)NC3(CCN(C(=O)c4ccsc4)CC3)C2=O)cc1	778
CCc1nnc(NC(=O)C2CC(=O)N(CCc3c[nH]c4ccc(Cl)cc34)C2)s1 (stereo not given)	715
CC1CCCCN1S(=O)(=O)c1ccc(C(=O)Nc2nc3c(s2)CCc2ccccc2-3)cc1 (stereo not given)	1270
CN1[C@@H]2CC(OC(=O)[C@H](CO)c3ccccc3)C[C@H]1[C@@H]1O[C@@H]12 (stereo not given in full)	619
CCNS(=O)(=O)c1cccnc1Nc1cccc(Br)c1	1040
CCCc1ccc(S(=O)(=O)N2CCC(c3noc(-c4ccc(C)cc4)n3)CC2)cc1	1370
CCc1nc2cc(-c3noc(-c4ccc(Br)o4)n3)ccc2o1	1190
O=C(COc1ccc(Br)cc1)NCC(c1cccs1)N1CCCC1 (stereo not given)	672
CCc1ccc(-c2noc(Cn3c(=O)n(Cc4cccc(OC)c4)c(=O)c4sccc43)n2)cc1	1170
COc1ccc(N2CCN(C(=O)CN3C(=O)c4ccccc4Sc4ncccc43)CC2)cc1	725

Structure (SMILES)	RP-LC retention time [s]
CCc1cccc(C)c1Nc1c(-c2ccc(F)cc2)nc2ncccn12	886
COc1ccccc1-n1cc(-c2ccccc2)c2c(NCCN(C)C)ncnc21	695
O=C(C1CCN(S(=O)(=O)c2ccc(-c3noc(C4CCCC4)n3)cc2)CC1)N1CCCC1	1030
CN1C(=O)c2cc(C(=O)NCCc3ccccc3Cl)nn2CC1(C)C(=O)NCc1ccccc1 (stereo not given)	816
CC(NC(=O)C1(c2ccc(NS(C)(=O)=O)cc2)CCCCC1)c1ccc(F)cc1 (stereo not given)	952
NS(=O)(=O)c1ccc(NS(=O)(=O)c2cc(-c3noc(C4CCCC4)n3)cs2)cc1	882
Cc1ccc(NC(=O)Cn2nc(N3CCSCC3)c3ccccc3c2=O)cc1F	976
CCn1c(=O)sc2cc(S(=O)(=O)N3CCC(C(=O)Nc4nc(C)cs4)CC3)ccc21	827
CC(C)n1c(=O)c(NCc2ccc(F)cc2)nc2ccncc21	669
O=S(=O)(Nc1ccc(Nc2ccc(-n3cccn3)nn2)cc1)c1ccc(F)cc1F	788
COc1cccc(-n2cc(-c3nc(-c4ccccn4)no3)c3ccccc3c2=O)c1	966
Cc1ccc(CNC(=O)CC2CCN(C(=O)c3[nH]c(C)c(C(=O)OC(C)C)c3C)CC2)cc1	853
O=C(c1ccc2c(c1)OCO2)N1CCC(Nc2ncnc3c2CCC3)C1 (stereo not given)	564
Cc1nnc(N2CCCC(C(=O)NCCC3=CCCCC3)C2)c2nn(-c3ccccc3)c(C)c12 (stereo not given)	803
CC(C)NC(=O)c1ccc(OCC2CCN(C(=O)c3ccccc3)CC2)cc1	828
O=C(OCc1nc2ccccc2s1)c1ccc2c(c1)OCCO2	953
CCc1noc(-c2cccnc2N2CCCN(Cc3ccc(Cl)cc3)CC2)n1	709
Cn1nc(N2CCC(NC(=O)Cc3cccs3)C2)ccc1=O (stereo not given)	627
O=S(=O)(Cc1ccccc1)N1CCC(OCCOCc2ccccc2)CC1	1040
CCc1ccc(N2C(=O)C3N=NN(c4cccc(OC)c4)C3C2=O)cc1 (stereo not given)	1020
CCc1ccc(C(=O)N2CCCn3nc(-c4cccs4)cc3C2)cc1	913
